System: D. melanogaster nAChRs
Test: Comparison of agonist activity between nAChRs expressed in X. laevis oocytes (one-way ANOVA, Kruskal-Wallis)
Format: cell-based
Experimental: We minimised the use of X. laevis according to the UK Animals (Scientific Procedures) Act, 1986. […] Oocytes were defolliculated after collagenase treatment in Ca^2+-free standard oocyte saline (Ca^2+-free SOS). cRNAs of the nAChR subunits and co-factors mixed at a concentration of 0.1 mg/mL was injected into oocytes at a volume of 50 nL. Then the oocytes were incubated in the incubation medium (SOS supplemented with sodium pyruvate (Nacalai Tesque, #13058–12), penicillin-streptomycin (MilliporeSigma, #P4333), gentamycin (Nacalai Tesque, #16672–04), and 4% horse serum (Thermo Fisher Scientific, #26050–070) for 3−4 days prior to electrophysiology.
Each defolliculated X. laevis oocyte was secured in a Perspex recording chamber and perfused with the standard oocyte saline (SOS) containing 0.5 μM atropine (SOSA) at a flow rate of 7−10 mL/min [48]. Two glass electrodes filled with 2 M KCl were impaled into each oocyte and the membrane potential was clamped at -100 mV. […] The peak amplitude of the response was measured and analysed by pCLAMP (Molecular Devices, USA).
Y=Imax/1+10^(logEC50‐X)nH
Where Y is the normalised response, X is log[ligand (M)], EC50 is the half maximal concentration (M), Imax is the maximum normalised response and nH is the Hill coefficient.
Prism software was employed for the statistical analyses. […] One-way ANOVA was used to analyse the differences of the ligand agonist activity in terms of pEC50 on the various nAChRs expressed in X. laevis as well as data obtained with D. melanogaster larvae and adults.

[1] = Dα1/Dβ1/Dβ2 vs. Dα1/Dα3/Dβ1/Dβ2
[2] = Dα1/Dβ1/Dβ2 vs. Dα2/Dα3/Dβ1/Dβ2
[3] = Dα1/Dβ1 vs. Dα1/Dα2/Dα3/Dβ1/Dβ2
[4] = Dα2/Dα3/Dβ1/Dβ2 vs. Dα1/Dα2/Dα3/Dβ1/Dβ2
[5] = Dα2/Dα3/Dβ1 vs. Dα1/Dα2/Dα3/Dβ1
[6] = Dα2/Dα3/Dβ1 vs. Dα1/Dα2/Dα3/Dβ1/Dβ2
[7] = Dα2/Dα3/Dβ1 vs. Dα1/Dα2/Dβ1/Dβ2
[8] = Dα2/Dα3/Dβ1 vs. Dα1/Dα3/Dβ1/Dβ2
[9] = Dα2/Dα3/Dβ1 vs. Dα2/Dα3/Dβ1/Dβ2
[10] = Dα3/Dβ1/Dβ2 vs. Dα1/Dα2/Dα3/Dβ1/Dβ2
[11] = Dα3/Dβ1/Dβ2 vs. Dα1/Dα2/Dβ1/Dβ2
[12] = Dα3/Dβ1/Dβ2 vs. Dα1/Dα3/Dβ1/Dβ2
[13] = Dα3/Dβ1/Dβ2 vs. Dα2/Dα3/Dβ1/Dβ2
[14] = Dα3/Dβ1 vs. Dα1/Dα2/Dα3/Dβ1/Dβ2

CN/C(=N\[N+](=O)[O-])NCc1cnc(Cl)s1 [Clothianidin, clothianidin]
Difference of Imax values, nAChRs compared [1]: -0.324 | Difference of pEC50 values, nAChRs compared [1]: -0.76 | Difference of Imax values, nAChRs compared [2]: -0.274 | Difference of pEC50 values, nAChRs compared [2]: -0.65 | Difference of Imax values, nAChRs compared (Dα1/Dβ1/Dβ2 vs. Dα3/Dβ1/Dβ2): -0.132 | Difference of pEC50 values, nAChRs compared (Dα1/Dβ1/Dβ2 vs. Dα3/Dβ1/Dβ2): -0.82 | Difference of Imax values, nAChRs compared (Dα1/Dβ1 vs. Dα1/Dα2/Dα3/Dβ1): -0.309 | Difference of pEC50 values, nAChRs compared (Dα1/Dβ1 vs. Dα1/Dα2/Dα3/Dβ1): 0.58 | Difference of Imax values, nAChRs compared [3]: -0.304 | Difference of pEC50 values, nAChRs compared [3]: 0.54 | Difference of Imax values, nAChRs compared (Dα1/Dβ1 vs. Dα1/Dα2/Dβ1): -0.191 | Difference of pEC50 values, nAChRs compared (Dα1/Dβ1 vs. Dα1/Dα2/Dβ1): 2.06 | Difference of Imax values, nAChRs compared (Dα1/Dβ1 vs. Dα1/Dα2/Dβ1/Dβ2): -0.292 | Difference of pEC50 values, nAChRs compared (Dα1/Dβ1 vs. Dα1/Dα2/Dβ1/Dβ2): 0.82 | Difference of Imax values, nAChRs compared (Dα1/Dβ1 vs. Dα1/Dα3/Dβ1): -0.119 | Difference of pEC50 values, nAChRs compared (Dα1/Dβ1 vs. Dα1/Dα3/Dβ1): -0.07 | Difference of Imax values, nAChRs compared (Dα1/Dβ1 vs. Dα1/Dα3/Dβ1/Dβ2): -0.176 | Difference of pEC50 values, nAChRs compared (Dα1/Dβ1 vs. Dα1/Dα3/Dβ1/Dβ2): -0.27 | Difference of Imax values, nAChRs compared (Dα1/Dβ1 vs. Dα1/Dβ1/Dβ2): 0.148 | Difference of pEC50 values, nAChRs compared (Dα1/Dβ1 vs. Dα1/Dβ1/Dβ2): 0.49 | Difference of Imax values, nAChRs compared (Dα1/Dβ1 vs. Dα2/Dα3/Dβ1): -0.374 | Difference of pEC50 values, nAChRs compared (Dα1/Dβ1 vs. Dα2/Dα3/Dβ1): 0.32 | Difference of Imax values, nAChRs compared (Dα1/Dβ1 vs. Dα2/Dα3/Dβ1/Dβ2): -0.126 | Difference of pEC50 values, nAChRs compared (Dα1/Dβ1 vs. Dα2/Dα3/Dβ1/Dβ2): -0.16 | Difference of Imax values, nAChRs compared (Dα1/Dβ1 vs. Dα3/Dβ1): -0.183 | Difference of pEC50 values, nAChRs compared (Dα1/Dβ1 vs. Dα3/Dβ1): -0.41 | Difference of Imax values, nAChRs compared (Dα1/Dβ1 vs. Dα3/Dβ1/Dβ2): 0.016 | Difference of pEC50 values, nAChRs compared (Dα1/Dβ1 vs. Dα3/Dβ1/Dβ2): -0.33 | Difference of Imax values, nAChRs compared [4]: -0.178 | Difference of pEC50 values, nAChRs compared [4]: 0.70 | Difference of Imax values, nAChRs compared [5]: 0.065 | Difference of pEC50 values, nAChRs compared [5]: 0.26 | Difference of Imax values, nAChRs compared [6]: 0.070 | Difference of pEC50 values, nAChRs compared [6]: 0.22 | Difference of Imax values, nAChRs compared [7]: 0.082 | Difference of pEC50 values, nAChRs compared [7]: 0.50 | Difference of Imax values, nAChRs compared [8]: 0.198 | Difference of pEC50 values, nAChRs compared [8]: -0.59 | Difference of Imax values, nAChRs compared (Dα2/Dα3/Dβ1 vs. Dα1/Dβ1/Dβ2): 0.522 | Difference of pEC50 values, nAChRs compared (Dα2/Dα3/Dβ1 vs. Dα1/Dβ1/Dβ2): 0.17 | Difference of Imax values, nAChRs compared [9]: 0.248 | Difference of pEC50 values, nAChRs compared [9]: -0.48 | Difference of Imax values, nAChRs compared (Dα2/Dα3/Dβ1 vs. Dα3/Dβ1/Dβ2): 0.390 | Difference of pEC50 values, nAChRs compared (Dα2/Dα3/Dβ1 vs. Dα3/Dβ1/Dβ2): -0.65 | Difference of Imax values, nAChRs compared [10]: -0.320 | Difference of pEC50 values, nAChRs compared [10]: 0.87 | Difference of Imax values, nAChRs compared [11]: -0.308 | Difference of pEC50 values, nAChRs compared [11]: 1.15 | Difference of Imax values, nAChRs compared [12]: -0.192 | Difference of pEC50 values, nAChRs compared [12]: 0.06 | Difference of Imax values, nAChRs compared [13]: -0.142 | Difference of pEC50 values, nAChRs compared [13]: 0.17 | Difference of Imax values, nAChRs compared (Dα3/Dβ1 vs. Dα1/Dα2/Dα3/Dβ1): -0.126 | Difference of pEC50 values, nAChRs compared (Dα3/Dβ1 vs. Dα1/Dα2/Dα3/Dβ1): 0.99 | Difference of Imax values, nAChRs compared [14]: -0.121 | Difference of pEC50 values, nAChRs compared [14]: 0.95 | Difference of Imax values, nAChRs compared (Dα3/Dβ1 vs. Dα1/Dα2/Dβ1): -0.008 | Difference of pEC50 values, nAChRs compared (Dα3/Dβ1 vs. Dα1/Dα2/Dβ1): 2.47 | Difference of Imax values, nAChRs compared (Dα3/Dβ1 vs. Dα1/Dα2/Dβ1/Dβ2): -0.109 | Difference of pEC50 values, nAChRs compared (Dα3/Dβ1 vs. Dα1/Dα2/Dβ1/Dβ2): 1.23 | Difference of Imax values, nAChRs compared (Dα3/Dβ1 vs. Dα1/Dα3/Dβ1): 0.064 | Difference of pEC50 values, nAChRs compared (Dα3/Dβ1 vs. Dα1/Dα3/Dβ1): 0.34 | Difference of Imax values, nAChRs compared (Dα3/Dβ1 vs. Dα1/Dα3/Dβ1/Dβ2): 0.007 | Difference of pEC50 values, nAChRs compared (Dα3/Dβ1 vs. Dα1/Dα3/Dβ1/Dβ2): 0.14 | Difference of Imax values, nAChRs compared (Dα3/Dβ1 vs. Dα1/Dβ1/Dβ2): 0.331 | Difference of pEC50 values, nAChRs compared (Dα3/Dβ1 vs. Dα1/Dβ1/Dβ2): 0.90 | Difference of Imax values, nAChRs compared (Dα3/Dβ1 vs. Dα2/Dα3/Dβ1): -0.191 | Difference of pEC50 values, nAChRs compared (Dα3/Dβ1 vs. Dα2/Dα3/Dβ1): 0.73 | Difference of Imax values, nAChRs compared (Dα3/Dβ1 vs. Dα2/Dα3/Dβ1/Dβ2): 0.057 | Difference of pEC50 values, nAChRs compared (Dα3/Dβ1 vs. Dα2/Dα3/Dβ1/Dβ2): 0.25 | Difference of Imax values, nAChRs compared (Dα3/Dβ1 vs. Dα3/Dβ1/Dβ2): 0.199 | Difference of pEC50 values, nAChRs compared (Dα3/Dβ1 vs. Dα3/Dβ1/Dβ2): 0.08
